The text below walks through data of publication PMC13083723 (Patterns, 2026).

Where “and” joins values, the source holds several entries; their conditions need not be identical. Equal values may be shown once. Where a name gives a salt, the structure may show the parent alone. Read-outs that look alike come from different tables or passages of the source.

In one data set the test system is Vero-E6 cells. The experiment in a line: cells. The conditions noted are these: for activation at 10 µM / activation at 5 µM / activation at 20 µM: Vero C1008, 24 h; for activation at 5 µM: read-out: PLD Effect in % 5 µM; for activation at 20 µM: read-out: PLD Effect in % 20 µM. It counts as cell-based.
The next data set relates to CaCo2 cells. The conditions noted are these: 10 μM in-assay concentration; ENZO library; amiodarone as positive control.
Another data set concerns A549 cells. As to the kind of experiment: PLD assay of predicted ENZO library compounds in A549 cells. The conditions noted are these: Homo sapiens, A549, read-out: PLD effect % in A549.
In a further data set the test system is A549-ACE2 cells. The experiment in a line: cells. The conditions noted are these: A549-ACE2, 24 h, read-out: PLD_Effect(%) A549-ACE2. The format is cell-based.
Data set [1] deals with SARS-CoV-2. The conditions noted are these: 10 µM; cited from earlier work.
Data set [2] has as its system SARS-CoV-2. The conditions noted are these: Caco-2, 20 µM; cited from earlier work.
For data set [3] the following is noted: cited from earlier work.
[4] abbreviates: Chlorocebus sabaeus, read-out: PLD effect % in Vero-E6.
[5] abbreviates: Chlorocebus sabaeus, read-out: PLD_Effect(%) VERO-E6.
[6] abbreviates: Chlorocebus sabaeus, read-out: PLD Effect in % 10 µM.
The mark [7] stands for this setting: value is the negative log10 of mol/L.
Setting [8] is: Chlorocebus sabaeus, Vero C1008, read-out: PLD EC50 µM.

For the compound `CNCC[C@H](Oc1cccc2ccccc12)c1cccs1` [Duloxetine], the activation at 10 µM was 95.9% in the data set on Vero-E6 cells (setting [4]) and 108% in the data set on A549 cells. Also, in the data set on CaCo2 cells, the “PLD effect % in CaCo2” value turned out to be 84.9%.
Taken in the same sequence, the figures for `OCCN1CCN(CCCN2c3ccccc3Sc3ccc(C(F)(F)F)cc32)CC1` [Fluphenazine] were 90.3%, 77.4% and 95.4%.
Taken in the same sequence, the figures for `CN1CCN(CCCN2c3ccccc3Sc3ccc(C(F)(F)F)cc32)CC1` [Trifluoperazine] were 102%, 97.8% and 63.2%.
In the case of `COCC(=O)O[C@]1(CCN(C)CCCc2nc3ccccc3[nH]2)CCc2cc(F)ccc2[C@@H]1C(C)C` [mibefradil, reference compound], in the data set with Vero-E6 cells (setting [5]), the activation at 10 µM is 88.2%. In addition, in the data set on Vero-E6 cells (Chlorocebus sabaeus), the activation at 5 µM stood at 62% and the activation at 20 µM is 2.41%. In addition, the activation at 10 µM with Vero-E6 cells (setting [6]) turned out to be 80.5%. Besides, the EC50 in the data set with Vero-E6 cells (Chlorocebus sabaeus, Vero C1008, read-out: PLD EC50) is 2.45 µM. Further, the activation at 10 µM in the data set on A549-ACE2 cells came to 97.4%. Further, the “Vero-E6 CPE inhibition %” value with SARS-CoV-2 [1] is given as -0.26. Moreover, the “CaCo2 CPE inhibition %” value in the data set on SARS-CoV-2 [2] is listed as 52.45%. Further, in data set [3], the “pchembl_value (type AC50), Dopamine D3 receptor” value is listed as 6.08; the “pchembl_value (type AC50), Mu opioid receptor” value is 6.01; the “pchembl_value (type AC50), Serotonin 1a (5-HT1a) receptor” value was 6.13. Further, in data set [3] (read-out: AC50 (value), Dopamine D3 receptor), the AC50 was 825 nM. In data set [3] (read-out: AC50 (value), Mu opioid receptor), the AC50 is 979 nM. Moreover, the AC50 in data set [3] (read-out: AC50 (value), Serotonin 1a (5-HT1a) receptor) was 746 nM. For the same compound, the IC50 in data set [3] (read-out: IC50 (value), Voltage-gated L-type calcium channel alpha-1C subunit) was 250 nM. In addition, in data set [3] (setting [7]), the “pchembl_value (type IC50), Voltage-gated L-type calcium channel alpha-1C subunit” value is on record as 6.60; the “pchembl_value (type IC50), Voltage-gated T-type calcium channel alpha-1G subunit” value was 6.00 and 7.19; the “pchembl_value (type IC50), Voltage-gated T-type calcium channel alpha-1H subunit” value was 6.00 and 6.89; the “pchembl_value (type IC50), Voltage-gated T-type calcium channel alpha-1I subunit” value was 6.90 and 6.00 and 6.89.
For `CSc1ccc2c(c1)N(CCC1CCCCN1C)c1ccccc1S2` (centres unmarked) [Thioridazine], the activation at 10 µM is 44.7% in the data set with Vero-E6 cells (setting [4]) and 33.5% in the data set with A549 cells. In the data set with CaCo2 cells, the “PLD effect % in CaCo2” value is listed as 22.7%.
For the compound `CNCCC(Oc1ccc(C(F)(F)F)cc1)c1ccccc1` (centres unmarked) [Fluoxetine, reference compound], the activation at 10 µM is 111% in the data set with Vero-E6 cells (setting [4]) and 108% in the data set with A549 cells.
For the compound `C[C@@H](NCCCc1cccc(C(F)(F)F)c1)c1cccc2ccccc12` [Cinacalcet], the activation at 10 µM in the data set with Vero-E6 cells (setting [4]) was 43%; in the data set on A549 cells it was 105%. In the data set with CaCo2 cells, the “PLD effect % in CaCo2” value was found to be 20.9%.
Taken in the same sequence, the figures for `CN(C/C=C/c1ccccc1)Cc1cccc2ccccc12` [Naftifine] were -1.6%, 7.5% and −3.3%.
On to `CNCC[C@@H](Oc1ccccc1C)c1ccccc1` [Atomoxetine], for which the activation at 10 µM is 27.7% in the data set with Vero-E6 cells (setting [4]) and 70.9% with A549 cells. Besides, the “PLD effect % in CaCo2” value in the data set on CaCo2 cells amounted to 0.7%.
Taken in the same sequence, the figures for `CN(C)CCCN1c2ccccc2CCc2ccc(Cl)cc21` [Clomipramine] were 70.9%, 66.2% and 74.6%.
The corresponding values for `CN1CCC[C@@H]1CCO[C@](C)(c1ccccc1)c1ccc(Cl)cc1` [Clemastine] are 30.1%, 50.4% and 6.9%.
Taken in the same sequence, the figures for `CC(CN1c2ccccc2Sc2ccccc21)N(C)C` (centres unmarked) [Promethazine] were 90.7%, 81.9% and 37.8%.
Regarding `COc1cccc([C@@H](C)NCCCc2ccccc2Cl)c1` [tecalcet, reference compound], the activation at 10 µM in the data set with Vero-E6 cells (setting [5]) came to 70.1%; in the data set on Vero-E6 cells (setting [6]), 74.3%; with A549-ACE2 cells, 93%. In addition, the activation at 5 µM with Vero-E6 cells (Chlorocebus sabaeus) is 59.6%. The activation at 20 µM with Vero-E6 cells (Chlorocebus sabaeus) was 102%. Also, the EC50 in the data set on Vero-E6 cells (setting [8]) is 2.6 µM. Also, the “Vero-E6 CPE inhibition %” value in the data set with SARS-CoV-2 [1] was -0.13%. In the data set on SARS-CoV-2 [2], the “CaCo2 CPE inhibition %” value is given as 78.10%.
As to `CN(C)CCCN1c2ccccc2Sc2ccc(Cl)cc21` [Chlorpromazine], the activation at 10 µM was 116% in the data set on Vero-E6 cells (setting [4]) and 80.8% in the data set with A549 cells. Moreover, the “PLD effect % in CaCo2” value in the data set with CaCo2 cells amounted to 67.1%.
Consider `NCCC(Oc1ccc(C(F)(F)F)cc1)c1ccccc1` (centres unmarked) [norfluoxetine, reference compound], for which the activation at 10 µM is 62.2% in the data set with Vero-E6 cells (setting [5]), 112% in the data set on Vero-E6 cells (setting [6]) and 108% in the data set on A549-ACE2 cells. The activation at 5 µM in the data set on Vero-E6 cells (Chlorocebus sabaeus) was found to be 92.1%. In addition, the activation at 20 µM in the data set on Vero-E6 cells (Chlorocebus sabaeus) was 198%. Also, the EC50 with Vero-E6 cells (setting [8]) was determined as 1.96 µM. Further, the “Vero-E6 CPE inhibition %” value in the data set with SARS-CoV-2 [1] was -0.11%. In the data set with SARS-CoV-2 [2], the “CaCo2 CPE inhibition %” value is listed as 94.99%.
With `CCOc1cc2ncc(C#N)c(Nc3ccc(F)c(Cl)c3)c2cc1NC(=O)/C=C/CN(C)C` [Pelitinib (EKB-569), Pelitinib, reference compound], in the data set with Vero-E6 cells (Chlorocebus sabaeus), the activation at 5 µM stood at 76.1% and the activation at 20 µM came to 101%. Moreover, in the data set on Vero-E6 cells (setting [6]), the activation at 10 µM is 85.5%. In the data set with SARS-CoV-2 [1], the “Vero-E6 CPE inhibition %” value was -0.31. Besides, the “CaCo2 CPE inhibition %” value in the data set with SARS-CoV-2 [2] is 83.39%.
Consider `CN1C[C@H](CNC(=O)OCc2ccccc2)C[C@@H]2c3cccc4c3c(cn4C)C[C@H]21` [metergoline, reference compound], for which, in the data set with Vero-E6 cells (Chlorocebus sabaeus), the activation at 5 µM was determined as 61% and the activation at 20 µM is 103%. Further, the activation at 10 µM in the data set on Vero-E6 cells (setting [6]) came to 73%. In addition, the “Vero-E6 CPE inhibition %” value in the data set on SARS-CoV-2 [1] is listed as 0.05%. In addition, the “CaCo2 CPE inhibition %” value with SARS-CoV-2 [2] is listed as 54.65%.
In the case of `CN(C)CC/C=C1/c2ccccc2Sc2ccc(Cl)cc21` [chlorprothixene hydrochloride, reference compound], in the data set on Vero-E6 cells (Chlorocebus sabaeus), the activation at 5 µM amounted to 124% and the activation at 20 µM stood at 192%. Besides, in the data set on Vero-E6 cells (setting [6]), the activation at 10 µM is 113%. Besides, the EC50 in the data set with Vero-E6 cells (setting [8]) worked out at 2.36 µM. The “Vero-E6 CPE inhibition %” value with SARS-CoV-2 [1] is recorded as 0.27%. In addition, in the data set on SARS-CoV-2 [2], the “CaCo2 CPE inhibition %” value was 55.65%.
Regarding `CN1CCCC(n2nc(Cc3ccc(Cl)cc3)c3ccccc3c2=O)CC1` (centres unmarked) [Azelastine], the activation at 10 µM in the data set on Vero-E6 cells (setting [4]) was 81.7%; in the data set with A549 cells it was 89.8%. In addition, in the data set with CaCo2 cells, the “PLD effect % in CaCo2” value is 36.5%.
`CCN(CC)CC1CCN(c2ncc3ncnc(Nc4ccc(F)c(Cl)c4)c3n2)CC1` [BIBU-1361, reference compound]: the “PLD Effect in % 5 µM” value in the data set with Vero-E6 cells (5 µM) is 160.51%. In addition, in the data set on Vero-E6 cells (10 µM), the “PLD Effect in % 10 µM” value stood at 180.15%. For the same compound, the “PLD Effect in % 20 µM” value with Vero-E6 cells (20 µM) is -42.53%. Further, the EC50 with Vero-E6 cells (read-out: PLD EC50) was found to be 0.63 µM. Besides, in the data set on SARS-CoV-2 [1], the “Vero-E6 CPE inhibition %” value is -0.24%. In addition, the “CaCo2 CPE inhibition %” value in the data set with SARS-CoV-2 [2] is 78.51%.

As usually defined, the EC50 is the midpoint of the concentration-response curve. What is called AC50 is the concentration giving half of the maximal activity seen. In general, IC50 refers to the concentration at which inhibition is half-maximal.
